We go through one compound from paper PMC5218480 (PLoS ONE, 2017).

In the assay the test system is MV-4-11 cells. As to the kind of experiment: Gene expression microarray analysis (Affymetrix PrimeView) and GSEA. The assay is classed as cell-based, human. On the set-up: RFU PODN (11730768_x_at) / Fold change /veh PODN (11730768_x_at) / RFU LINC00158 (11744669_a_at) / Fold change /veh LINC00158 (11744669_a_at) / RFU DUSP10 (11751237_a_at) / Fold change /veh DUSP10 (11751237_a_at) / RFU ID3 (11757404_x_at) / Fold change /veh ID3 (11757404_x_at) / RFU PLEKHG5 (11737974_s_at) / Fold change /veh PLEKHG5 (11737974_s_at) / RFU LRRC4B (11730491_at) / Fold change /veh LRRC4B (11730491_at) / RFU GIMAP4 (11747438_a_at) / Fold change /veh GIMAP4 (11747438_a_at) / RFU KRT8 (11758183_x_at) / Fold change /veh KRT8 (11758183_x_at) / RFU CNN1 (11734310_a_at) / Fold change /veh CNN1 (11734310_a_at) / RFU VPS37D (11726825_at) / Fold change /veh VPS37D (11726825_at) / RFU C10orf10 (11716522_x_at) / Fold change /veh C10orf10 (11716522_x_at) / RFU KIR2DL2 /// KIR2DL4 /// KIR2DL5A /// KIR2DL5B /// KIR2DS1 /// KIR2DS2 /// KIR2DS3 /// KIR2DS4 /// KIR3DL3 /// KIR3DL3 /// KIR3DS1 (11738374_at) / Fold change /veh KIR2DL2 /// KIR2DL4 /// KIR2DL5A /// KIR2DL5B /// KIR2DS1 /// KIR2DS2 /// KIR2DS3 /// KIR2DS4 /// KIR3DL3 /// KIR3DL3 /// KIR3DS1 (11738374_at) / RFU C1QL1 (11718748_at) / Fold change /veh C1QL1 (11718748_at) / RFU TMPRSS4 (11747572_a_at) / Fold change /veh TMPRSS4 (11747572_a_at) / RFU HAMP (11756126_x_at) / Fold change /veh HAMP (11756126_x_at) / RFU RNFT2 (11725882_a_at) / Fold change /veh RNFT2 (11725882_a_at) / RFU NR4A2 (11747474_a_at) / Fold change /veh NR4A2 (11747474_a_at) / RFU ABCC12 (11746883_a_at) / Fold change /veh ABCC12 (11746883_a_at) / RFU TMEM136 (11760407_x_at) / Fold change /veh TMEM136 (11760407_x_at) / RFU CLDN22 /// WWC2 (11732394_at) / Fold change /veh CLDN22 /// WWC2 (11732394_at) / RFU HLA-DPB1 (11760878_x_at) / Fold change /veh HLA-DPB1 (11760878_x_at) / RFU SPINT1 (11716480_a_at) / Fold change /veh SPINT1 (11716480_a_at) / RFU GAP43 (11754022_s_at) / Fold change /veh GAP43 (11754022_s_at) / RFU A4GNT (11735810_at) / Fold change /veh A4GNT (11735810_at) / RFU PRB3 (11715151_x_at) / Fold change /veh PRB3 (11715151_x_at) / RFU TUBB4B (11761932_at) / Fold change /veh TUBB4B (11761932_at) / RFU CAPN14 (11732068_a_at) / Fold change /veh CAPN14 (11732068_a_at) / RFU TMCC2 (11721928_a_at) / Fold change /veh TMCC2 (11721928_a_at) / RFU IRGQ (11745062_a_at) / Fold change /veh IRGQ (11745062_a_at) / RFU FAM174B (11720279_a_at) / Fold change /veh FAM174B (11720279_a_at) / RFU TMPRSS4 (11748680_a_at) / Fold change /veh TMPRSS4 (11748680_a_at) / RFU FAM212B (11763350_a_at) / Fold change /veh FAM212B (11763350_a_at) / RFU PLEKHG5 (11743358_a_at) / Fold change /veh PLEKHG5 (11743358_a_at) / RFU ZSCAN30 (11745921_a_at) / Fold change /veh ZSCAN30 (11745921_a_at) / RFU CMKLR1 (11741424_a_at) / Fold change /veh CMKLR1 (11741424_a_at) / RFU LOC101060620 /// MAPK8IP1 (11723275_at) / Fold change /veh LOC101060620 /// MAPK8IP1 (11723275_at) / RFU SPTSSB (11747773_x_at) / Fold change /veh SPTSSB (11747773_x_at) / RFU PRSS12 (11739890_at) / Fold change /veh PRSS12 (11739890_at) / RFU BIN1 (11741810_x_at) / Fold change /veh BIN1 (11741810_x_at) / RFU WNT11 (11732464_a_at) / Fold change /veh WNT11 (11732464_a_at) / RFU C10orf10 (11716521_a_at) / Fold change /veh C10orf10 (11716521_a_at) / RFU C5orf56 (11738089_at) / Fold change /veh C5orf56 (11738089_at) / RFU CYB561 (11721691_x_at) / Fold change /veh CYB561 (11721691_x_at) / RFU ANKRD19P (11752326_a_at) / Fold change /veh ANKRD19P (11752326_a_at) / RFU OR2T12 /// OR2T33 /// OR2T8 (11738714_s_at) / Fold change /veh OR2T12 /// OR2T33 /// OR2T8 (11738714_s_at) / RFU VCAN (11748164_a_at) / Fold change /veh VCAN (11748164_a_at) / RFU JSRP1 (11732532_at) / Fold change /veh JSRP1 (11732532_at) / RFU KRTAP10-11 (11738290_x_at) / Fold change /veh KRTAP10-11 (11738290_x_at) / RFU MYO3A (11730013_a_at) / Fold change /veh MYO3A (11730013_a_at) / RFU EBF3 (11725865_a_at) / Fold change /veh EBF3 (11725865_a_at) / RFU CAMK2N1 (11719241_x_at) / Fold change /veh CAMK2N1 (11719241_x_at) / RFU C5orf56 (11738088_a_at) / Fold change /veh C5orf56 (11738088_a_at) / RFU OLFML3 (11715873_a_at) / Fold change /veh OLFML3 (11715873_a_at) / RFU LOC100653217 /// NTM (11731650_a_at) / Fold change /veh LOC100653217 /// NTM (11731650_a_at) / RFU MAPK11 (11762145_a_at) / Fold change /veh MAPK11 (11762145_a_at) / RFU FIZ1 (11724087_x_at) / Fold change /veh FIZ1 (11724087_x_at) / RFU OASL (11726364_x_at) / Fold change /veh OASL (11726364_x_at) / RFU SOX15 (11748057_x_at) / Fold change /veh SOX15 (11748057_x_at) / RFU CD79A (11719716_a_at) / Fold change /veh CD79A (11719716_a_at) / RFU HIST1H1D (11736915_at) / Fold change /veh HIST1H1D (11736915_at) / RFU CASKIN2 (11723855_a_at) / Fold change /veh CASKIN2 (11723855_a_at) / RFU LOC730098 (11760151_x_at) / Fold change /veh LOC730098 (11760151_x_at) / RFU OR4N2 (11742367_at) / Fold change /veh OR4N2 (11742367_at) / RFU PRRT2 (11749266_a_at) / Fold change /veh PRRT2 (11749266_a_at) / RFU SNX32 (11753110_a_at) / Fold change /veh SNX32 (11753110_a_at) / RFU CDHR5 (11726645_a_at) / Fold change /veh CDHR5 (11726645_a_at) / RFU RCAN1 (11760418_a_at) / Fold change /veh RCAN1 (11760418_a_at) / RFU FAM167A (11723789_a_at) / Fold change /veh FAM167A (11723789_a_at) / RFU FAM26E (11764081_at) / Fold change /veh FAM26E (11764081_at) / RFU ISYNA1 (11749810_s_at) / Fold change /veh ISYNA1 (11749810_s_at) / RFU ACY1 (11761880_at) / Fold change /veh ACY1 (11761880_at) / RFU 11764098_at / Fold change /veh 11764098_at / RFU SAMD14 (11745864_x_at) / Fold change /veh SAMD14 (11745864_x_at) / RFU NPB (11741838_a_at) / Fold change /veh NPB (11741838_a_at) / RFU TMPRSS6 (11731388_a_at) / Fold change /veh TMPRSS6 (11731388_a_at) / RFU KRTAP10-2 (11738614_at) / Fold change /veh KRTAP10-2 (11738614_at) / RFU ARHGAP8 /// PRR5-ARHGAP8 (11727945_x_at) / Fold change /veh ARHGAP8 /// PRR5-ARHGAP8 (11727945_x_at) / RFU KRTAP5-7 /// NADSYN1 (11734609_at) / Fold change /veh KRTAP5-7 /// NADSYN1 (11734609_at) / RFU RASL12 (11751679_a_at) / Fold change /veh RASL12 (11751679_a_at) / RFU CDKN2B (11736163_a_at) / Fold change /veh CDKN2B (11736163_a_at) / RFU PRF1 (11729649_at) / Fold change /veh PRF1 (11729649_at) / RFU, ZNF638 /// ZNF638-IT1 / Fold change vs veh, ZNF638 /// ZNF638-IT1 / RFU, PANK3 / Fold change vs veh, PANK3 / RFU, SH3YL1 / Fold change vs veh, SH3YL1 / RFU, ZEB2 / Fold change vs veh, ZEB2 / RFU, NRIP1 / Fold change vs veh, NRIP1 / RFU, PTTG1IP / Fold change vs veh, PTTG1IP / RFU, CAPN2 / Fold change vs veh, CAPN2 / RFU, MED14 / Fold change vs veh, MED14 / RFU, SNORA58 / Fold change vs veh, SNORA58 / RFU, C1orf63 / Fold change vs veh, C1orf63 / RFU, LRRFIP1 / Fold change vs veh, LRRFIP1 / RFU, NDUFAF7 / Fold change vs veh, NDUFAF7 / RFU, SLC12A2 / Fold change vs veh, SLC12A2 / RFU, IBTK / Fold change vs veh, IBTK / RFU, ESF1 / Fold change vs veh, ESF1 / Fold change vs veh, TMEM50B / RFU, TAOK1 / Fold change vs veh, TAOK1 / RFU, ACBD3 / Fold change vs veh, ACBD3 / RFU, TMA16 / Fold change vs veh, TMA16 / RFU, RWDD3 / Fold change vs veh, RWDD3 / RFU, BCAT1 / Fold change vs veh, BCAT1 / RFU, EDEM3 / Fold change vs veh, EDEM3 / RFU, TMEM33 / Fold change vs veh, TMEM33 / RFU, WDR75 / Fold change vs veh, WDR75 / RFU, AHCTF1 / Fold change vs veh, AHCTF1 / RFU, TFRC / Fold change vs veh, TFRC / RFU, ZDHHC17 / Fold change vs veh, ZDHHC17 / RFU, NOM1 / Fold change vs veh, NOM1 / RFU, ARL8B / Fold change vs veh, ARL8B / RFU, ZBTB11 / Fold change vs veh, ZBTB11 / RFU, TAMM41 / Fold change vs veh, TAMM41 / RFU, KIAA1704 /// LOC100996395 / Fold change vs veh, KIAA1704 /// LOC100996395 / RFU, ING1 / Fold change vs veh, ING1 / RFU, TRMT61B / Fold change vs veh, TRMT61B / RFU, FUBP3 / Fold change vs veh, FUBP3 / RFU, TP53 / Fold change vs veh, TP53 / RFU, TNKS2 / Fold change vs veh, TNKS2 / RFU, ZFP14 / Fold change vs veh, ZFP14 / RFU, ACTR2 / Fold change vs veh, ACTR2 / RFU, PPP3R1 / Fold change vs veh, PPP3R1 / RFU, PIK3R1 / Fold change vs veh, PIK3R1 / RFU, HNRNPA1 / Fold change vs veh, HNRNPA1 / RFU, RNF170 / Fold change vs veh, RNF170 / RFU, ZNF28 / Fold change vs veh, ZNF28 / RFU, RNGTT / Fold change vs veh, RNGTT / RFU, OGT / Fold change vs veh, OGT / RFU, BRD1 / Fold change vs veh, BRD1 / RFU, MARS / Fold change vs veh, MARS / RFU, ZNF655 / Fold change vs veh, ZNF655 / RFU, FAHD1 / Fold change vs veh, FAHD1 / RFU, BDP1 / Fold change vs veh, BDP1 / RFU, LRRCC1 / Fold change vs veh, LRRCC1 / RFU, ARID1A / Fold change vs veh, ARID1A / RFU, ZNF146 / Fold change vs veh, ZNF146 / RFU, ZNF330 / Fold change vs veh, ZNF330 / RFU, GPN3 / Fold change vs veh, GPN3 / RFU, C9orf123 / Fold change vs veh, C9orf123 / RFU, N4BP2L2 / Fold change vs veh, N4BP2L2 / RFU, ARFIP1 / Fold change vs veh, ARFIP1 / RFU, FAM179B / Fold change vs veh, FAM179B / RFU, BCL10 / Fold change vs veh, BCL10 / RFU, UHRF1BP1L / Fold change vs veh, UHRF1BP1L / RFU, BET1 / Fold change vs veh, BET1 / RFU, CNOT2 / Fold change vs veh, CNOT2 / RFU, ZNF268 / Fold change vs veh, ZNF268 / Fold change vs veh, ZNF507 / RFU, DGCR2 / Fold change vs veh, DGCR2 / RFU, WDSUB1 / Fold change vs veh, WDSUB1 / Fold change vs veh, HSP90B1 /// MIR3652 / RFU, ADSS / Fold change vs veh, ADSS / RFU, GK / Fold change vs veh, GK / RFU, ZNF148 / Fold change vs veh, ZNF148 / RFU, TAF9 / Fold change vs veh, TAF9 / RFU, SLC1A5 / Fold change vs veh, SLC1A5 / RFU, SLMO2 / Fold change vs veh, SLMO2 / RFU, ABCC4 / Fold change vs veh, ABCC4 / RFU, LOC101060439 /// RAP1B / Fold change vs veh, LOC101060439 /// RAP1B / RFU, RFX7 / Fold change vs veh, RFX7 / RFU, GTPBP10 / Fold change vs veh, GTPBP10 / RFU, CNEP1R1 / Fold change vs veh, CNEP1R1 / RFU, BIVM-ERCC5 /// ERCC5 / Fold change vs veh, BIVM-ERCC5 /// ERCC5 / RFU, ILF3 / Fold change vs veh, ILF3 / RFU 11762660_at / Fold change /veh 11762660_at / RFU VCAN (11757783_s_at) / Fold change /veh VCAN (11757783_s_at) / RFU DDX43 (11728927_at) / Fold change /veh DDX43 (11728927_at) / RFU KRT8 (11758188_x_at) / Fold change /veh KRT8 (11758188_x_at) / RFU NKD1 (11759106_at) / Fold change /veh NKD1 (11759106_at) / RFU SRD5A1 (11742802_a_at) / Fold change /veh SRD5A1 (11742802_a_at) / RFU TPSAB1 /// TPSB2 (11721975_s_at) / Fold change /veh TPSAB1 /// TPSB2 (11721975_s_at) / RFU GSTM3 (11746129_a_at) / Fold change /veh GSTM3 (11746129_a_at) / RFU IL23R (11737362_x_at) / Fold change /veh IL23R (11737362_x_at) / RFU TMEM51 (11727254_a_at) / Fold change /veh TMEM51 (11727254_a_at) / RFU PIWIL2 (11732686_x_at) / Fold change /veh PIWIL2 (11732686_x_at) / RFU ORM1 (11744905_x_at) / Fold change /veh ORM1 (11744905_x_at) / RFU CCDC152 (11743942_at) / Fold change /veh CCDC152 (11743942_at) / RFU ECM1 (11717891_a_at) / Fold change /veh ECM1 (11717891_a_at) / RFU IL23R (11748794_a_at) / Fold change /veh IL23R (11748794_a_at) / RFU TNFAIP8L3 (11732012_x_at) / Fold change /veh TNFAIP8L3 (11732012_x_at) / RFU MBOAT4 (11741988_at) / Fold change /veh MBOAT4 (11741988_at) / RFU 11764193_at / Fold change /veh 11764193_at / RFU TMEM53 (11763286_at) / Fold change /veh TMEM53 (11763286_at) / RFU MAGEB2 (11727129_at) / Fold change /veh MAGEB2 (11727129_at) / RFU TMEM200A (11744735_a_at) / Fold change /veh TMEM200A (11744735_a_at) / RFU CCDC152 (11751479_a_at) / Fold change /veh CCDC152 (11751479_a_at) / RFU FAM211A (11726209_a_at) / Fold change /veh FAM211A (11726209_a_at) / RFU RGS16 (11746705_a_at) / Fold change /veh RGS16 (11746705_a_at) / RFU VCAN (11755009_s_at) / Fold change /veh VCAN (11755009_s_at) / RFU RHOB (11743442_s_at) / Fold change /veh RHOB (11743442_s_at) / RFU RGS16 (11720943_a_at) / Fold change /veh RGS16 (11720943_a_at) / RFU RGS16 (11720944_at) / Fold change /veh RGS16 (11720944_at) / RFU, VPS4B / Fold change vs veh, VPS4B / RFU, CREB1 / Fold change vs veh, CREB1 / RFU, DNAJC13 / Fold change vs veh, DNAJC13 / RFU, GNAQ / Fold change vs veh, GNAQ / RFU, CDK5R1 / Fold change vs veh, CDK5R1 / RFU, ZRANB3 / Fold change vs veh, ZRANB3 / RFU, CUL4A / Fold change vs veh, CUL4A / RFU, CCNY / Fold change vs veh, CCNY / RFU, UFL1 / Fold change vs veh, UFL1 / RFU, COG3 / Fold change vs veh, COG3 / RFU, DIAPH2 / Fold change vs veh, DIAPH2 / RFU, SKA2 / Fold change vs veh, SKA2 / RFU, AFF3 / Fold change vs veh, AFF3 / RFU, LMF1 / Fold change vs veh, LMF1 / RFU, IPO11 / Fold change vs veh, IPO11 / RFU, DFFB / Fold change vs veh, DFFB / RFU, FOXP1 / Fold change vs veh, FOXP1 / RFU, CARD8 / Fold change vs veh, CARD8 / RFU, STRN3 / Fold change vs veh, STRN3 / RFU, ADK / Fold change vs veh, ADK / RFU, RASSF2 / Fold change vs veh, RASSF2 / RFU, WIPF1 / Fold change vs veh, WIPF1 / RFU, LARP1B / Fold change vs veh, LARP1B / RFU, RASA1 / Fold change vs veh, RASA1 / RFU, RB1 / Fold change vs veh, RB1 / RFU, PPFIA1 / Fold change vs veh, PPFIA1 / RFU, MAT2A / Fold change vs veh, MAT2A / RFU, CCT5 / Fold change vs veh, CCT5 / RFU, WDR92 / Fold change vs veh, WDR92 / RFU, CUX1 / Fold change vs veh, CUX1 / RFU, TTC7A / Fold change vs veh, TTC7A / RFU, TMEM135 / Fold change vs veh, TMEM135 / RFU, DEPTOR / Fold change vs veh, DEPTOR / RFU, CPM / Fold change vs veh, CPM / RFU, DNAJB6 / Fold change vs veh, DNAJB6 / RFU, CACNA2D3 / Fold change vs veh, CACNA2D3 / RFU, DTX4 / Fold change vs veh, DTX4 / RFU, TFCP2 / Fold change vs veh, TFCP2 / RFU, GMCL1 /// GMCL1P1 / Fold change vs veh, GMCL1 /// GMCL1P1 / RFU, AEBP2 / Fold change vs veh, AEBP2 / RFU, SNHG1 /// SNORD22 /// SNORD25 /// SNORD26 /// SNORD27 /// SNORD28 /// SNORD29 /// SNORD31 / Fold change vs veh, SNHG1 /// SNORD22 /// SNORD25 /// SNORD26 /// SNORD27 /// SNORD28 /// SNORD29 /// SNORD31 / Fold change (Aza/veh), C12orf56 (ProbeSet 11735607_a_at) / Fold change (ACY-1035/veh), C12orf56 (ProbeSet 11735607_a_at) / Fold change (Aza/veh), FGFR1OP (ProbeSet 11751329_s_at) / Fold change (ACY-1035/veh), FGFR1OP (ProbeSet 11751329_s_at) / Fold change (Aza/veh), VPS36 (ProbeSet 11739960_a_at) / Fold change (ACY-1035/veh), VPS36 (ProbeSet 11739960_a_at) / RFU SYPL1 (11715823_x_at) / Fold change /veh SYPL1 (11715823_x_at) / RFU IGFBP7 (11715501_s_at) / Fold change /veh IGFBP7 (11715501_s_at) / RFU REEP3 (11722064_at) / Fold change /veh REEP3 (11722064_at) / RFU IGLL1 (11728026_x_at) / Fold change /veh IGLL1 (11728026_x_at): dose or concentration left out as unconfirmed. The following applies: MV-4-11 cells, 48 hours.

Take `Nc1ncn([C@@H]2O[C@H](CO)[C@@H](O)[C@H]2O)c(=O)n1` [azacitidine]: the “Fold change /veh ARHGAP8 /// PRR5-ARHGAP8 (11727945_x_at)” value was 0.99.
